The text below walks through data of patent publication US20080279848A1, “Methods of treating lupus using CD4 antibodies” (GENENTECH, INC., priority 2006, published 2008).

The test system of experiment [1] is NZBxW F1 mice (spontaneous lupus-like kidney disease). The experiment is described as follows: NZBxW F1 preclinical model of SLE, treatment initiated at 9 months of age (severe disease), CD4 antibody and MMF.
Procedure: (§1) Proteinuria was measured using a Clinitek® 50 Urine Chemistry Analyzer (Bayer Corporation, Elkhart, Ind., USA). A drop of freshly collected urine was placed on a reagent strip (Multistix® 10 SG, Bayer), and the strip was immediately inserted into the analyzer after removal of excess urine by blotting with a clean gauze sponge.
Numbers of activated CD4+ T cells found in spleen were determined by flow cytometry as follows. Whole spleens were harvested and crushed into single cell suspensions, which were then red blood cell lysed using EL buffer (erythrocyte lysis buffer, from Qiagen, Valencia, Calif., catalog number 79217), passed through a 70 micron cell strainer, and then resuspended for cell counts. A fixed volume of each cell suspension was mixed with a fluorescent bead (Polysciences, Inc., catalog number 18862) solution of known concentration. The mixture was then run on a FACScan™ flow cytometer from BD Biosciences (Franklin Lakes, N.J.). By collecting a fixed number of beads for each mixture, the total number of live cells could be calculated and subsequently used to determine total numbers of cell subpopulations for the spleen of each mouse after further FACS analysis.
Treatment of NZB×NZW mice was initiated at 9 months of age. Mice were screened for proteinuria and randomized into groups based on their proteinuria scores. […] Mice were monitored for changes in proteinuria (urinalysis was performed as described above in Example 1), disease progression, and survival. […] MMF was given IP at either 25 mg/kg daily or 50 mg/kg daily (alone or in combination with the CD4 antibody).
CD4^+ T cell and B2 B cell numbers were determined by flow cytometry basically as described above, using antibodies to identify the various cell populations and then using the percentage of each population represented (of total lymphocytes) multiplied by the total number of lymphocytes to determine the number of each population. B2 cells (the majority of B cells) were identified by positive staining for B220 (CD45) and CD38. Anti-B220/CD45 and anti-CD38 were from BD Pharmingen.
Comparisons were performed using Dunnett's method with the control antibody treated group as the reference control group (designated in bold), and only p values for groups that achieve statistical significance vs. the reference control are designated on the graph.
For experiment [2] the test system is unchanged. The experiment is described as follows: NZBxW F1 preclinical model of SLE, treatment initiated at 8 months of age (moderate-severe disease). In kind it is in vivo, mouse. The following applies: over time after treatment; CTX 50 mg/kg IP every 10 days; FIG. 7A.
Source text: The control antibody was an irrelevant mouse IgG1 antibody (a mouse antibody was used for the control since an irrelevant rat antibody would elicit an immune response against itself, influencing the course of disease; the rat anti-CD4 antibody prevents such a response to itself).
At 8 months of age, NZB×NZW mice were screened for proteinuria and randomized into 5 groups based on their proteinuria scores. At this age, disease is considered to be moderate-severe. At the onset of the experiment, each group of 19 mice was composed of the following distribution of protein concentrations in the urine: 32% at >300 mg/dl; 24% at 100-300 mg/dl; and 44% at 30-100 mg/dl. […] Mice were monitored for changes in urine protein concentration (e.g., proteinuria), Blood Urea Nitrogen (BUN), and survival.
as §1
Blood urea nitrogen was measured using a Cobas Integra® 400 chemistry analyzer (Roche Diagnostics, Basel, Switzerland) and urea detection reagent (also supplied by Roche Diagnostics) according to the manufacturer's instructions. […]
Experiment [3] has as its system SJL/J mice with PLP-139-151 peptide induced EAE. The experiment is described as follows: Relapsing and remitting EAE induced by PLP peptide in SJL/J mice (model of MS). Type of experiment: in vivo, mouse. The note with it: treatment initiated at day 14 (peak of disease), CD4 antibody = murinized YTS177; FIG. 12. The text has this: Experimental autoimmune encephalomyelitis (EAE) is an inflammatory condition of the central nervous system (CNS) with similarities to MS; in both diseases, demyelination results in impaired nerve conduction and paralysis. Relapsing and remitting EAE induced by injection of proteolipid protein (PLP) peptide in SJL/J mice provides a useful preclinical efficacy model of MS (see, e.g., Miller and Karpus (1996) “Experimental Autoimmune Encephalomyelitis in the Mouse” in Current Protocols in Immunology, Coligan et al. (eds.), John Wiley & Sons, Inc. and Sobel et al. (1990) “Acute experimental allergic encephalomyelitis in SJL/J mice induced by a synthetic peptide of myelin proteolipid protein” J Neuropathol Exp Neurol. 49(5):468-79).
FIG. 10 schematically illustrates progression of the disease over time after injection of the PLP peptide in this model. Injection at day 0 is followed by disease onset (days 0-15), remission (days 15-25), and relapse (day 25-termination of the study at days 60-70). […]
Numbers of effector/memory cells in the blood were determined by flow cytometry as follows. […]
To 1×10^6 cells, a saturating amount of fluorophore-conjugated antibodies were added and incubated on ice for 30 minutes, followed by washing with cold buffer. […] Samples were analyzed by flow cytometry on a FACSCalibur from BD Biosciences. […]

With `COc1c(C)c2c(c(O)c1C/C=C(\C)CCC(=O)OCCN1CCOCC1)C(=O)OC2` [MMF, 2-morpholinoethyl (E)-6-(1,3-dihydro-4-hydroxy-6-methoxy-7-methyl-3-oxo-5-isobenzofuranyl)-4-methyl-4-hexenoate], in experiment [1] (25 mg/kg MMF, may not be statistically significant, FIG. 20B), the “blood B2 B cell numbers” value is given as “increase”. In experiment [1] (month 2 of treatment, MMF 50 or 25 mg/kg daily, FIG. 19), the “proteinuria, multiple comparison analysis (Dunnett's method) vs control antibody” value was “did not show statistically significant reduction in proteinuria”. Further, in experiment [1] (one month of treatment, MMF 25 or 50 mg/kg daily IP, YTS177 5 mg/kg 3x/week, FIG. 17B), the “capacity to reverse severe proteinuria (mice reversed from 300 mg/dl proteinuria)” value was “not sufficient to reverse severe proteinuria significantly”. Besides, in experiment [1] (over time after treatment, FIG. 17A), the “mice exhibiting >300 mg/dl proteinuria (reversal of nephritis symptoms in very late stage disease)” value was “not observed”.
Consider `O=P1(N(CCCl)CCCl)NCCCO1` (stereo not drawn) [cyclophosphamide], for which the “mice exhibiting >300 mg/dl proteinuria (reversal of nephritis symptoms in very late stage disease)” value in experiment [2] is recorded as “not observed”.
Turning to glatiramer acetate, the clinical score entry in experiment [3] is “ineffective”.
